In brackets after ≈: the same amount, converted by molar mass. Like-named read-outs stand apart in the source and are kept apart here.
Key:
[1] = system: Escherichia coli; test: Resistance frequency, large inoculum method; assay type: cell-based; conditions: E. coli ΔtolC JW5503, 32×MIC
Procedure: Selection of resistant mutants. Resistant mutants were selected using the large inoculum method. Briefly, E. coli BW25113, K. pneumoniae ATCC 27736, or E. cloacae ATCC 29893 (˜1.0×10^7 c.f.u.) was plated on 100-mm plates of Luria Bertani agar containing 8, 16, 32, or 64 μg/mL, lolamycin. For E. coli ΔtolC (JW5503), ˜1.0×10^7 c.f.u. was plated on 100-mm plates of Luria Bertani agar containing 0.063, 0.13, 0.25, 0.5 μg/mL lolamycin. Colonies were visible after incubating at 37° C. for 48 h. Resistant colonies were confirmed by growing colonies in selective media with the same concentration of lolamycin.

[2] = system: Enterobacter cloacae; test: MIC, micro-dilution broth method (CLSI); assay type: cell-based
[3] = system: clinical isolates of E. coli, K. pneumoniae, and E. cloacae; test: Susceptibility of panel of multidrug-resistant clinical isolates
[4] = Mouse maximum tolerated dose / tolerability; assay type: in vivo; conditions: IP
Procedure: Mouse maximum tolerated dose (MTD) of compound 2 and lolamycin. […] In these studies, 10- to 12-week-old female C57BL/6 mice purchased from Charles River Laboratories were used. The maximum tolerated dose (MTD) of a single compound via IP injection was determined first. Compound 2 and lolamycin were formulated in 50% DMSO, 50% PEG400. Compound 2 and lolamycin were given by intraperitoneal (IP) injection. All the mice were monitored for signs of toxicity for 2 weeks. For multiple doses, the compound was given by daily IP injection for 5 consecutive days and the mice were monitored for signs of toxicity for 1 month. The MTD was the highest dosage with acceptable toxicity (for example, <20% weight loss).
Next, the MTD of lolamycin via oral gavage was determined. Lolamycin was formulated in 20% DMSO, 30% Water, and 50% PEG400. Lolamycin was given via oral gavage. All the mice were monitored for signs of toxicity for 2 weeks. For multiple doses, compound was given twice daily orally for 3 consecutive days and the mice were monitored for signs of toxicity. The MTD was the highest dosage with acceptable toxicity (for example, <20% weight loss). […] The MTD of lolamycin was used to inform the dosing schedule used in subsequent efficacy studies.

[5] = system: Klebsiella pneumoniae; test: MIC, micro-dilution broth method (CLSI); assay type: cell-based

Fc1ccc(COc2cccc(-c3n[nH]cc3-c3ccncc3)c2)cc1 [Compound 2, 4-(3-(3-((4-fluorobenzyl)oxy)phenyl)-1H-pyrazol-4-yl)pyridine]
resistance frequency [1]: 9.2×10^−7
MIC ([2]; E. cloacae AR-0163): >32 µg/mL
MIC ([2]; E. cloacae ATCC BAA-2468): >32 µg/mL
MIC ([2]; Enterobacter cloacae, ATCC29893, E. cloacae ATCC 29893, read-out: MIC): > 32 µg/mL
MIC ([2]; Enterobacter cloacae, ATCCBAA2341, E. cloacae ATCC BAA-2341, read-out: MIC): > 32 µg/mL
MIC ([2]; Enterobacter cloacae, ATCCBAA2468, E. cloacae ATCC BAA-2468, read-out: MIC): > 32 µg/mL
MIC ([2]; Enterobacter cloacae, E. cloacae AR0032, read-out: MIC): > 32 µg/mL
MIC ([2]; Enterobacter cloacae, E. cloacae AR0038, read-out: MIC): > 32 µg/mL
MIC ([2]; Enterobacter cloacae, E. cloacae AR0050, read-out: MIC): 8 µg/mL (≈ 23.2 µM)
MIC ([2]; Enterobacter cloacae, E. cloacae AR0053, read-out: MIC): > 32 µg/mL
MIC ([2]; Enterobacter cloacae, E. cloacae AR0060, read-out: MIC): 16 µg/mL (≈ 46.3 µM)
MIC ([2]; Enterobacter cloacae, E. cloacae AR0065, read-out: MIC): 16 µg/mL (≈ 46.3 µM)
MIC ([2]; Enterobacter cloacae, E. cloacae AR0072, read-out: MIC): > 32 µg/mL
MIC ([2]; Enterobacter cloacae, E. cloacae AR0073, read-out: MIC): > 32 µg/mL
MIC ([2]; Enterobacter cloacae, E. cloacae AR0093, read-out: MIC): > 32 µg/mL
MIC ([2]; Enterobacter cloacae, E. cloacae AR0132, read-out: MIC): > 32 µg/mL
MIC ([2]; Enterobacter cloacae, E. cloacae AR0136, read-out: MIC): > 32 µg/mL
MIC ([2]; Enterobacter cloacae, E. cloacae AR0154, read-out: MIC): 8 µg/mL (≈ 23.2 µM)
MIC ([2]; Enterobacter cloacae, E. cloacae AR0164, read-out: MIC): > 32 µg/mL
MIC ([2]; Enterobacter cloacae, E. cloacae AR0544, read-out: MIC): > 32 µg/mL
MIC ([2]; Enterobacter cloacae, E. cloacae AR0545, read-out: MIC): > 32 µg/mL
MIC ([2]; Enterobacter cloacae, E. cloacae AR-0163, read-out: MIC): > 32 µg/mL
activity against MDR clinical isolates [3]: only minimal activity
tolerability ([4]; C57BL/6 mice, daily dosing of 200 mg/kg for 5 consecutive days): well tolerated
tolerability ([4]; C57BL/6 mice, single dose of 200 mg/kg): well tolerated
tolerability ([4]; mice, 100 mg/kg twice a day for three days): well-tolerated
MIC ([5]; K. pneumoniae AR-0040): >32 µg/mL
MIC ([5]; K. pneumoniae ATCC BAA-1705): >32 µg/mL
MIC ([5]; Klebsiella pneumoniae, ATCC27736, K. pneumoniae ATCC 27736, read-out: MIC): > 32 µg/mL
MIC ([5]; Klebsiella pneumoniae, ATCCBAA1705, K. pneumoniae ATCC BAA-1705, read-out: MIC): > 32 µg/mL
MIC ([5]; Klebsiella pneumoniae, ATCCBAA2146, K. pneumoniae ATCC BAA-2146, read-out: MIC): > 32 µg/mL
MIC ([5]; Klebsiella pneumoniae, ATCCBAA2342, K. pneumoniae ATCC BAA-2342, read-out: MIC): > 32 µg/mL
MIC ([5]; Klebsiella pneumoniae, ATCCBAA2470, K. pneumoniae ATCC BAA-2470, read-out: MIC): > 32 µg/mL
MIC ([5]; Klebsiella pneumoniae, ATCCBAA2472, K. pneumoniae ATCC BAA-2472, read-out: MIC): > 32 µg/mL
MIC ([5]; Klebsiella pneumoniae, ATCCBAA2473, K. pneumoniae ATCC BAA-2473, read-out: MIC): > 32 µg/mL
MIC ([5]; Klebsiella pneumoniae, K. pneumoniae AR0034, read-out: MIC): > 32 µg/mL
MIC ([5]; Klebsiella pneumoniae, K. pneumoniae AR0039, read-out: MIC): > 32 µg/mL
MIC ([5]; Klebsiella pneumoniae, K. pneumoniae AR0041, read-out: MIC): > 32 µg/mL
MIC ([5]; Klebsiella pneumoniae, K. pneumoniae AR0042, read-out: MIC): > 32 µg/mL
MIC ([5]; Klebsiella pneumoniae, K. pneumoniae AR0043, read-out: MIC): > 32 µg/mL
MIC ([5]; Klebsiella pneumoniae, K. pneumoniae AR0044, read-out: MIC): > 32 µg/mL
MIC ([5]; Klebsiella pneumoniae, K. pneumoniae AR0046, read-out: MIC): > 32 µg/mL
MIC ([5]; Klebsiella pneumoniae, K. pneumoniae AR0047, read-out: MIC): > 32 µg/mL
MIC ([5]; Klebsiella pneumoniae, K. pneumoniae AR0049, read-out: MIC): > 32 µg/mL
MIC ([5]; Klebsiella pneumoniae, K. pneumoniae AR0066, read-out: MIC): > 32 µg/mL
MIC ([5]; Klebsiella pneumoniae, K. pneumoniae AR0068, read-out: MIC): > 32 µg/mL
MIC ([5]; Klebsiella pneumoniae, K. pneumoniae AR0075, read-out: MIC): > 32 µg/mL
MIC ([5]; Klebsiella pneumoniae, K. pneumoniae AR0076, read-out: MIC): > 32 µg/mL
MIC ([5]; Klebsiella pneumoniae, K. pneumoniae AR0079, read-out: MIC): > 32 µg/mL
MIC ([5]; Klebsiella pneumoniae, K. pneumoniae AR0080, read-out: MIC): > 32 µg/mL
MIC ([5]; Klebsiella pneumoniae, K. pneumoniae AR0087, read-out: MIC): > 32 µg/mL
MIC ([5]; Klebsiella pneumoniae, K. pneumoniae AR0098, read-out: MIC): > 32 µg/mL
MIC ([5]; Klebsiella pneumoniae, K. pneumoniae AR0106, read-out: MIC): > 32 µg/mL
MIC ([5]; Klebsiella pneumoniae, K. pneumoniae AR0107, read-out: MIC): > 32 µg/mL
MIC ([5]; Klebsiella pneumoniae, K. pneumoniae AR0109, read-out: MIC): > 32 µg/mL
MIC ([5]; Klebsiella pneumoniae, K. pneumoniae AR0112, read-out: MIC): > 32 µg/mL
MIC ([5]; Klebsiella pneumoniae, K. pneumoniae AR0113, read-out: MIC): > 32 µg/mL
MIC ([5]; Klebsiella pneumoniae, K. pneumoniae AR0115, read-out: MIC): > 32 µg/mL
MIC ([5]; Klebsiella pneumoniae, K. pneumoniae AR0117, read-out: MIC): > 32 µg/mL
MIC ([5]; Klebsiella pneumoniae, K. pneumoniae AR0120, read-out: MIC): > 32 µg/mL
MIC ([5]; Klebsiella pneumoniae, K. pneumoniae AR0125, read-out: MIC): > 32 µg/mL
MIC ([5]; Klebsiella pneumoniae, K. pneumoniae AR0126, read-out: MIC): > 32 µg/mL
MIC ([5]; Klebsiella pneumoniae, K. pneumoniae AR0129, read-out: MIC): > 32 µg/mL
MIC ([5]; Klebsiella pneumoniae, K. pneumoniae AR0135, read-out: MIC): > 32 µg/mL
MIC ([5]; Klebsiella pneumoniae, K. pneumoniae AR0138, read-out: MIC): > 32 µg/mL
MIC ([5]; Klebsiella pneumoniae, K. pneumoniae AR0139, read-out: MIC): > 32 µg/mL
MIC ([5]; Klebsiella pneumoniae, K. pneumoniae AR0140, read-out: MIC): > 32 µg/mL
MIC ([5]; Klebsiella pneumoniae, K. pneumoniae AR0141, read-out: MIC): > 32 µg/mL
MIC ([5]; Klebsiella pneumoniae, K. pneumoniae AR0142, read-out: MIC): > 32 µg/mL
MIC ([5]; Klebsiella pneumoniae, K. pneumoniae AR0143, read-out: MIC): > 32 µg/mL
MIC ([5]; Klebsiella pneumoniae, K. pneumoniae AR0145, read-out: MIC): > 32 µg/mL
MIC ([5]; Klebsiella pneumoniae, K. pneumoniae AR0146, read-out: MIC): > 32 µg/mL
MIC ([5]; Klebsiella pneumoniae, K. pneumoniae AR0148, read-out: MIC): > 32 µg/mL
MIC ([5]; Klebsiella pneumoniae, K. pneumoniae AR0152, read-out: MIC): > 32 µg/mL
MIC ([5]; Klebsiella pneumoniae, K. pneumoniae AR0153, read-out: MIC): > 32 µg/mL
MIC ([5]; Klebsiella pneumoniae, K. pneumoniae AR0158, read-out: MIC): > 32 µg/mL
MIC ([5]; Klebsiella pneumoniae, K. pneumoniae AR0160, read-out: MIC): > 32 µg/mL
MIC ([5]; Klebsiella pneumoniae, K. pneumoniae AR0347, read-out: MIC): > 32 µg/mL
MIC ([5]; Klebsiella pneumoniae, K. pneumoniae AR0542, read-out: MIC): > 32 µg/mL
MIC ([5]; Klebsiella pneumoniae, K. pneumoniae AR0548, read-out: MIC): > 32 µg/mL
MIC ([5]; Klebsiella pneumoniae, K. pneumoniae AR0550, read-out: MIC): > 32 µg/mL
MIC ([5]; Klebsiella pneumoniae, K. pneumoniae AR0552, read-out: MIC): > 32 µg/mL
MIC ([5]; Klebsiella pneumoniae, K. pneumoniae AR0553, read-out: MIC): > 32 µg/mL
MIC ([5]; Klebsiella pneumoniae, K. pneumoniae AR0554, read-out: MIC): > 32 µg/mL
MIC ([5]; Klebsiella pneumoniae, K. pneumoniae AR0555, read-out: MIC): > 32 µg/mL
MIC ([5]; Klebsiella pneumoniae, K. pneumoniae AR-0040, read-out: MIC): > 32 µg/mL
